Test results: US20230357249A1, “ANDROGEN RECEPTOR PROTEIN DEGRADERS WITH A TRICYCLIC CEREBLON LIGAND” (THE REGENTS OF THE UNIVERSITY OF MICHIGAN, priority 2020, published 2023)

Target: T1, AR protein (Homo sapiens, UniProt P10275)
T1 construct: endogenous in cells; host or cells: VCaP
T1 sequence (P10275 1-920): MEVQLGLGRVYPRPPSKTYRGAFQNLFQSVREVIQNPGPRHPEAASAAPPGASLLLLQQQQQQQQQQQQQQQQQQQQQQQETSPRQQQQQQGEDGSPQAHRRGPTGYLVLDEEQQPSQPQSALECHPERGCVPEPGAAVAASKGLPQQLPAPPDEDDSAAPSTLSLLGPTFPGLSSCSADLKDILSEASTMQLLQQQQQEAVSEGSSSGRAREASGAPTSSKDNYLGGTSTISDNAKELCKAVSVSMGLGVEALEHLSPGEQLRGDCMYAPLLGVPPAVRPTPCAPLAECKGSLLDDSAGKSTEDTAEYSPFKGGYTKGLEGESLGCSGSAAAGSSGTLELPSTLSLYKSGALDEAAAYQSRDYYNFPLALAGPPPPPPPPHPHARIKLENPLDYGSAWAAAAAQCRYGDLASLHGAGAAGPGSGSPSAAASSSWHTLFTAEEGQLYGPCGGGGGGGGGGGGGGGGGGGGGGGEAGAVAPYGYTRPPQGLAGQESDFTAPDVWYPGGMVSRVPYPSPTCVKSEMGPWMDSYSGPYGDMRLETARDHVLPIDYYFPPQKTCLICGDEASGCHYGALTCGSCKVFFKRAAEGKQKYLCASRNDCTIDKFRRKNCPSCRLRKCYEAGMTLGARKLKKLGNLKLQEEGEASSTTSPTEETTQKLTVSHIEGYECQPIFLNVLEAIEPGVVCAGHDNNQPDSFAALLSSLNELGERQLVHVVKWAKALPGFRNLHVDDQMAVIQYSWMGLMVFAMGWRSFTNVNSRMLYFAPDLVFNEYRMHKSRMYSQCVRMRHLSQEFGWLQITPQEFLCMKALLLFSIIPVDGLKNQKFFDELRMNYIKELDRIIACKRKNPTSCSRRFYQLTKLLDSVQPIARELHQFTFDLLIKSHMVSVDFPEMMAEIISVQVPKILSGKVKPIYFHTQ
Assay: AR protein degradation in VCaP cells, Western blotting
Format: cell-based
Design: key to AR protein degradation VCap 10 nM / AR protein degradation VCap 100 nM: A: >90% degradation (24 hr treatment); B: >50% degradation but <90% (24 hr treatment); C: >10% degradation but <50% (24 hr treatment); D: No significant degradation (24 hr treatment)
Settings: 24 hr treatment; for percent AR protein degradation at 0.01 µM / AR protein degradation VCap 10 nM: 10 nM; for percent AR protein degradation at 0.1 µM / AR protein degradation VCap 100 nM: 100 nM
Experimental: The appropriate cell line, e.g., prostate cancer LNCaP, Vcap, or 22RV1 cell line, was treated with Compounds of the Disclosure as indicated. The treated cells were lysed with RIPA buffer. The AR level in the cell lysates was examined by western blotting and a specific AR antibody (ab194196, Abcam, Cambridge, MA 02139) with concentration of 1:20,000. GAPDH was used as a loading control.
Bands were quantified with ImageJ software. The relative numbers of each band obtained from normalization with its corresponding GAPDH level were compared with Prism 8 software. The DC50 values were produced from Prism 8, and the DC90 values were calculated with an equation=Bottom + (Top-Bottom)/(1+10^((LogEC50-X)*HillSlope) based on DC50 and Hillslope values.
The amount of AR protein degradation in VCap and MDA-MB-453 cells caused by representative Compounds of the Disclosure at the concentrations indicated is presented in Table 4, FIG. 1, and FIG. 2.

Compound	percent AR protein degradation at 0.01 µM	percent AR protein degradation at 0.1 µM	AR protein degradation VCap 10 nM	AR protein degradation VCap 100 nM
C[C@H]1C[C@H](NC(=O)c2ccc(N3CCC(N4Cc5cc6c(cc5C4)C(=O)N(C4CCC(=O)NC4=O)C6=O)CC3)cc2)CC[C@H]1Oc1ccc(C#N)c(Cl)c1 (stereo partly shown) [compound 13]	> 90%	> 90%	–	–
CC1(C)C(Nc2ccc(C(=O)N3CCC(N4Cc5cc6c(cc5C4)C(=O)N(C4CCC(=O)NC4=O)C6=O)CC3)cc2)C(C)(C)C1Oc1ccc(C#N)c(Cl)c1 (stereo not shown) [compound 176]	10 to 50%	> 90%	–	–
CN(c1ccc(C#N)c(Cl)c1)[C@H]1CC[C@H](NC(=O)c2ccc(O[C@H]3CC[C@H](N4Cc5cc6c(cc5C4)C(=O)N(C4CCC(=O)NC4=O)C6=O)CC3)cc2)CC1 (stereo partly shown) [compound 281, N-((1r,4r)-4-((3-Chloro-4-Cyanophenyl)(Methyl)Amino)Cyclohexyl)-4-(((1r,4r)-4-(6-(2,6-Dioxopiperidin-3-Yl)-5,7-Dioxo-3,5,6,7-Tetrahydropyrrolo[3,4-F]Isoindol-2(1h)-Yl)Cyclohexyl)Oxy)Benzamide]	> 90%	> 90%	–	–
N#Cc1ccc(O[C@H]2CC[C@H](N3Cc4cc(C(=O)N5CCC(N6Cc7cc8c(cc7C6)C(=O)N(C6CCC(=O)NC6=O)C8=O)CC5)ccc4C3=O)CC2)cc1Cl (stereo partly shown) [compound 173]	10 to 50%	> 90%	–	–
N#Cc1ccc(N[C@H]2CC[C@H](NC(=O)c3ccc(N4CCC(N5Cc6cc7c(cc6C5)C(=O)N(C5CCC(=O)NC5=O)C7=O)CC4)cc3)CC2)cc1Cl (stereo partly shown) [compound 17]	> 90%	> 90%	–	–
N#Cc1ccc(N[C@H]2CC[C@H](NC(=O)c3ccc(N4CC(CN5Cc6cc7c(cc6C5)C(=O)N(C5CCC(=O)NC5=O)C7=O)C4)cc3)CC2)cc1Cl (stereo partly shown) [compound 22]	50 to 90%	> 90%	–	–
N#Cc1ccc(N[C@H]2CC[C@H](NC(=O)c3ccc(N4CCC(CN5Cc6cc7c(cc6C5)C(=O)N(C5CCC(=O)NC5=O)C7=O)CC4)cc3)CC2)cc1Cl (stereo partly shown) [compound 18]	50 to 90%	> 90%	–	–
N#Cc1ccc(OC2CCC3(CC2)CC(NC(=O)c2ccc(N4CCC(CN5Cc6cc7c(cc6C5)C(=O)N(C5CCC(=O)NC5=O)C7=O)CC4)cc2)C3)cc1Cl (stereo not shown) [compound 125]	–	10 to 50%	D	–
CC1(C)[C@H](Oc2ccc(C#N)c(Cl)c2)C(C)(C)[C@H]1N1Cc2cc(C(=O)N3CCC(N4Cc5cc6c(cc5C4)C(=O)N(C4CCC(=O)NC4=O)C6=O)CC3)ccc2C1=O (stereo partly shown) [compound 5]	10 to 50%	10 to 50%	–	–
CN(c1ccc(C#N)c(Cl)c1)[C@H]1CC[C@H](NC(=O)c2ccc(N3CCN(CC(=O)N4Cc5cc6c(cc5C4)C(=O)N(C4CCC(=O)NC4=O)C6)CC3)cc2)CC1 (stereo partly shown) [compound 327, N-((1r,4r)-4-((3-Chloro-4-Cyanophenyl)(Methyl)Amino)Cyclohexyl)-4-(4-(2-(6-(2,6-Dioxopiperidin-3-Yl)-5-Oxo-3,5,6,7-Tetrahydropyrrolo[3,4-F]Isoindol-2(1h)-Yl)-2-Oxoethyl)Piperazin-1-Yl)Benzamide]	> 90%	> 90%	–	–
CN(c1ccc(C#N)c(Cl)c1)[C@H]1CC[C@H](NC(=O)c2ccc(CN3CCC(C(=O)N4Cc5cc6c(cc5C4)C(=O)N(C4CCC(=O)NC4=O)C6)CC3)cc2)CC1 (stereo partly shown) [compound 326]	> 90%	> 90%	–	–
CC1(C)C(Nc2ccc(C(=O)N3CCC(CN4Cc5cc6c(cc5C4)C(=O)N(C4CCC(=O)NC4=O)C6=O)CC3)cc2)C(C)(C)C1Oc1ccc(C#N)c(Cl)c1 (stereo not shown) [compound 175]	10 to 50%	50 to 90%	–	–
CN(c1ccc(C#N)c(Cl)c1)[C@H]1CC[C@H](NC(=O)c2ccc(N3CCC(CN4Cc5cc6c(cc5C4)C(=O)N(C4CCC(=O)NC4=O)C6=O)CC3)nn2)CC1 (stereo partly shown) [compound 325]	> 90%	> 90%	–	–
CN(c1ccc(C#N)c(Cl)c1)[C@H]1CC[C@H](NC(=O)c2ccc(N3CCC(CN4Cc5cc6c(cc5C4)C(=O)N(C4CCC(=O)NC4=O)C6=O)CC3)cc2)CC1 (stereo partly shown) [compound 20, N-((1r,4r)-4-((3-chloro-4-cyanophenyl)(methyl)amino)cyclohexyl)-4-(4-((6-(2,6-dioxopiperidin-3-yl)-5,7-dioxo-3,5,6,7-tetrahydropyrrolo [3,4-f]isoindol-2(1H)-yl)methyl)piperidin-1-yl)benzamide]	> 90%	> 90%	–	–
CN(c1ccc(C#N)c(Cl)c1)[C@H]1CC[C@H](NC(=O)c2ccc(CN3CCC(N4Cc5cc6c(cc5C4)C(=O)N(C4CCC(=O)NC4=O)C6=O)CC3)cc2)CC1 (stereo partly shown) [compound 278]	> 90%	> 90%	–	–
N#Cc1ccc(N2CC[C@H]3C[C@H](NC(=O)c4ccc(N5CCC(CN6Cc7cc8c(cc7C6)C(=O)N(C6CCC(=O)NC6=O)C8=O)CC5)cc4)CC[C@H]32)cc1Cl (stereo partly shown) [compound 26]	10 to 50%	50 to 90%	–	–
N#Cc1ccc(O[C@H]2CC[C@H](Oc3ccc(C(=O)N4CCC(CN5Cc6cc7c(cc6C5)C(=O)N(C5CCC(=O)NC5=O)C7=O)CC4)cc3)CC2)cc1Cl (stereo partly shown) [compound 12]	–	–	D	D
N#Cc1ccc(O[C@H]2CC[C@H](Oc3ccc(C(=O)N4CCC(N5Cc6cc7c(cc6C5)C(=O)N(C5CCC(=O)NC5=O)C7=O)CC4)cc3)CC2)cc1Cl (stereo partly shown) [compound 11]	–	–	D	D

The next lines start with the values.

percent AR protein degradation at 0.01 µM	percent AR protein degradation at 0.1 µM	AR protein degradation VCap 10 nM	AR protein degradation VCap 100 nM	Compound
50 to 90%	50 to 90%	–	–	N#Cc1ccc(O[C@H]2CC[C@H](NC(=O)c3ccc4c(c3)CCN(CC(=O)N3CCc5cc6c(cc5C3)C(=O)N(C3CCC(=O)NC3=O)C6=O)C4)CC2)cc1Cl (stereo partly shown) [compound 28]
–	50 to 90%	D	–	N#Cc1ccc(O[C@H]2CC[C@H](Nc3ccc(C(=O)N4CCC(CN5Cc6cc7c(cc6C5)C(=O)N(C5CCC(=O)NC5=O)C7=O)CC4)cc3)CC2)cc1Cl (stereo partly shown) [compound 9]
> 90%	> 90%	–	–	C[C@H]1C[C@H](NC(=O)c2ccc(N3CCC(CN4Cc5cc6c(cc5C4)C(=O)N(C4CCC(=O)NC4=O)C6=O)CC3)cc2)CC[C@H]1Oc1ccc(C#N)c(Cl)c1 (stereo partly shown) [compound 14]
50 to 90%	> 90%	–	–	N#Cc1ccc(O[C@H]2CC[C@H](NC(=O)c3ccc4c(c3)CCN(CC(=O)N3Cc5cc6c(cc5C3)C(=O)N(C3CCC(=O)NC3=O)C6=O)C4)CC2)cc1Cl (stereo partly shown) [compound 27, N-((1r,4r)-4-(3-chloro-4-cyanophenoxy)cyclohexyl)-2-(2-(6-(2,6-dioxopiperidin-3-yl)-5,7-dioxo-3,5,6,7-tetrahydropyrrolo[3,4-f]isoindol-2(1H)-yl)-2-oxoethyl)-1,2,3,4-tetrahydroisoquinoline-6-carboxamide]
–	50 to 90%	D	–	N#Cc1ccc(O[C@H]2CC[C@H](Nc3ccc(C(=O)N4CCC(N5Cc6cc7c(cc6C5)C(=O)N(C5CCC(=O)NC5=O)C7=O)CC4)cc3)CC2)cc1Cl (stereo partly shown) [compound 10]
> 90%	> 90%	–	–	N#Cc1ccc(O[C@H]2CC[C@H](NC(=O)c3ccc4c(c3)CCN(C(=O)CN3Cc5cc6c(cc5C3)C(=O)N(C3CCC(=O)NC3=O)C6=O)CC4)CC2)cc1Cl (stereo partly shown) [compound 25]
> 90%	> 90%	–	–	C[C@H]1C[C@@H](NC(=O)c2ccc(N3CCC(CN4Cc5cc6c(cc5C4)C(=O)N(C4CCC(=O)NC4=O)C6=O)CC3)cc2)CC[C@@H]1Oc1ccc(C#N)c(Cl)c1 (stereo partly shown) [compound 15]
> 90%	> 90%	–	–	N#Cc1ccc(O[C@H]2CC[C@H](NC(=O)c3ccc4c(c3)CCN(C(=O)CN3Cc5cc6c(cc5C3)C(=O)N(C3CCC(=O)NC3=O)C6=O)C4)CC2)cc1Cl (stereo partly shown) [compound 24]
